Test results taken from the NIST ThermoML archive (doi:10.1016/j.jct.2017.07.011).

Assay: xn = mol fraction of the nth substance listed
Settings: 100 kPa, Liquid, Vibrating tube method

CCCC(C)O (stereo unspecified) [pentan-2-ol] + O
mass density [kg/m3]
Settings	x1 = 0.00105	x1 = 0.0021	x1 = 0.00413	x1 = 0.00599	x1 = 0.00677	x1 = 0.00857	x1 = 1
273.65 K	999.095	998.354	997.02	995.922	995.484	994.604	824
274.15 K	999.119	998.377	997.038	995.939	995.499	994.61	823.6
274.65 K	999.148	998.4	997.057	995.957	995.51	994.622	823.2
275.15 K	999.16	998.416	997.073	995.965	995.523	994.625	822.8
275.65 K	999.177	998.43	997.08	995.972	995.524	994.627	822.5
276.15 K	999.187	998.44	997.09	995.972	995.527	994.622	822.1
276.65 K	999.193	998.445	997.092	995.974	995.524	994.619	821.7
277.15 K	999.185	998.444	997.082	995.964	995.512	994.604	821.3
277.65 K	999.19	998.439	997.076	995.952	995.498	994.583	820.9
278.15 K	999.187	998.426	997.066	995.938	995.484	994.566	820.6
278.65 K	999.177	998.416	997.053	995.923	995.466	994.542	820.2
279.15 K	999.163	998.401	997.037	995.898	995.439	994.519	819.8
279.65 K	999.133	998.376	997.002	995.867	995.403	994.471	819.4
280.15 K	999.115	998.36	996.978	995.84	995.375	994.439	819.1
280.65 K	999.09	998.332	996.951	995.806	995.342	994.408	818.7
281.15 K	999.058	998.301	996.915	995.769	995.301	994.365	818.3
281.65 K	999.025	998.267	996.878	995.731	995.261	994.318	817.9
282.15 K	998.992	998.234	996.841	995.688	995.214	994.273	817.5
